The subject of test [1] is purified erythroid cells isolated from the spleens of normal and thalassemic mice. Nature of the test: Primary splenic erythroid cell cultures with CFSE staining (cell proliferation). The format is cell-based, mouse. The following applies: for CFSE FACS profile versus untreated cells: erythroid cells from wt mice, FIG. 2A legend, n=4 per genotype; for effect on cell proliferation of erythroid cultures (CFSE): erythroid cultures from thalassemic mice, AG490 100 uM, FIG. 2A; for total cell number as % of the initial cell numbers: 48 h in culture with Epo, with colcemid, n=4. On the procedure: Spleens from […] were harvested and mechanically dissociated into single cell suspensions. Murine mononuclear cells were then isolated by centrifugation using Lympholyte-M density gradients (Cedarlane Laboratories Ltd, Westbury, N.Y.) following the manufacturer's instructions. Cells were incubated on ice for 15 minutes with a cocktail containing 10 μg each of non-erythroid FITCconjugated antibodies (GR-1, MAC1, CD4, CD8, CD11b, and CD49) (BD PharMingen). After washing, the cells were incubated for 15 minutes at 4° C. with anti-FITC microbeads (Miltenyi Biotech, Auburn, Calif.). The cell suspension was placed on a magnetic column and the eluted erythroid cells were kept for RNA extraction, protein analysis, in vitro culture with carboxy-fluorescein diacetate succinimidyl ester (CFSE; MolecularProbes, Eugene, Oreg.) staining or flow cytometric analysis. CFSE was added to the cells to give a final concentration of 1.25 uM. After 10 minutes at 37° C., further dye uptake was prevented by addition of 5 volumes of cold medium and incubated in ice for 5 minutes. The cells were then washed three times and seeded at 1×10^7 cells/ml in IMDM with 30% FBS (Hyclone, South Logan, Utah 84321), 1% deionized BSA, 100 IU/ml of penicillin, 100 ug/mL of streptomycin (Mediatech, Manassas, Va.), […] beta-thioglycerol (mTG; Sigma-Aldrich), and […] rHuEpo (10 U/ml; Amgen Mfg. Ltd. Thousand Oaks, Calif.). […] In order to visualize cell division, the cultured erythroid cells were stained with CFSE. Once the dye is inside the cell, it binds to cytoskeletal proteins and is divided equally between daughter cells. Thus, it is possible to determine if cells are dividing by monitoring the reduction of CFSE fluorescence (FIG. 2A).

For test [2], the system named is normal and thalassemic mice. As to the kind of experiment: In vivo administration of Jak2 inhibitor to normal and thalassemic mice. Also on record: species or system mouse. The text has this: Mouse models that mimic beta-thalassemia intermedia (th3/+) and major (th3/th3) were used. (Rivella, S. et al, A novel murine model of Cooley anemia and its rescue by lentiviral mediated human beta globin gene transfer. Blood (2003) 101: 2932-2939, hereby incorporated by reference.) In th3/+ mice both the betaminor and betamajor gens have been deleted from one chromosome. Mice completely lacking adult beta-globin (th3/th3) die late in gestation. To circumvent this problem, bone marrow transplantation is conducted wherein hematopoietic fetal liver cells (HFLCs) were harvested from th3/th3 embryos at embryonic day 14.5 (E14.5) and injected into lethally irradiated syngeneic wild-type (wt) adult recipients.
Compound A, a Jak2 inhibitor, was administered to cohorts of normal and thalassemic mice of different ages. […] These observations indicate that the main role of pJak2 is to propel the erythropoietic drive.

For the compound `N#C/C(=C/c1ccc(O)c(O)c1)C(=O)NCc1ccccc1` [AG490], in test [1], the “CFSE FACS profile versus untreated cells” value was “little difference from untreated cells” and the “effect on cell proliferation of erythroid cultures (CFSE)” value is listed as “blocking cell proliferation”.
Regarding `CN[C@H]1CCc2cc(OC)c(OC)c(OC)c2-c2ccc(OC)c(=O)cc21` [colcemid], the “CFSE FACS profile versus untreated cells” value in test [1] was “little difference from untreated cells”. Moreover, the results for the “total cell number as % of the initial cell numbers” value in test [1] (th3/+ erythroid cells), in test [1] (th3/th3 erythroid cells) and in test [1] (wt erythroid cells) were 88±18%, 72±25% and 46±9%, respectively.
For `Cc1cnc(Nc2ccc(N3CCN(C)CC3)cc2)nc1Nc1cccc(S(=O)(=O)NC(C)(C)C)c1` [compound A], the “effect on cell proliferation of erythroid cultures (CFSE)” value in test [1] was “blocking cell proliferation”. The spleen size result in test [2] (6- and 12-week old thalassemic mice, 10 and 18 days of treatment) was “dramatically reduced”. Moreover, the Hb levels result in test [2] (thalassemic mice, 10 and 18 days of treatment) is on record as “decreasing Hb levels”. For the same compound, the “erythropoiesis and size of the spleen” value in test [2] (young normal animals) was “affected both erythropoiesis and the size of the spleen”.

Source of the values: patent US20110269721A1, “METHODS OF TREATING THALASSEMIA” (TargeGen, Inc., priority 2008, published 2011).
